Measurements: US20250345392A1, “ANNEXIN A1 LIQUID PHARMACEUTICAL COMPOSITION” (ResoTher Pharma A/S, priority 2022, published 2025)
Like-named read-outs stand apart in the source and are kept apart here. Ends that are not written are not given here.

Test: 14-day repeat dose IV toxicity study with toxicokinetic evaluation on Day 1 and Day 14 in rats
Format: in vivo, Wistar rats
Settings: rat; for C0 / AUC(0-inf) / half-life / clearance / Vd: in vivo
Protocol: Peptide 1 in blood samples collected from animals used in the studies (rat and dog) has been measured by an LC-MS/MS method. Analysis of samples collected in the pharmacokinetic study in rats was performed prior to validation of the method. Prior to analysis of samples from the GLP toxicology studies, the method was validated according to GLP to ensure that it is selective, accurate, reproducible, and able to produce reliable results. The method was validated over the range from 0.075 to 25 μg/mL Peptide 1.
In the 14-day intravenous toxicity study in Wistar rats (see study description below), samples were collected from 3 male and 3 female animals per group dosed at 0 (Control), 1, 3 or 10 mg/kg/day at 2, 5, 10, 20 and 40 minutes after dosing on Days 1 and 14. Samples were analysed for levels of Peptide 1.

[1] = iv, 1 mg/kg/day, IV 1.0 mg/kg/day, female, Day 1
[2] = iv, 1 mg/kg/day, IV 1.0 mg/kg/day, female, Day 14
[3] = iv, 1 mg/kg/day, IV 1.0 mg/kg/day, male, Day 1
[4] = iv, 1 mg/kg/day, IV 1.0 mg/kg/day, male, Day 14
[5] = iv, 3 mg/kg/day, IV 3.0 mg/kg/day, female, Day 1
[6] = iv, 3 mg/kg/day, IV 3.0 mg/kg/day, female, Day 14
[7] = iv, 3 mg/kg/day, IV 3.0 mg/kg/day, male, Day 1
[8] = iv, 3 mg/kg/day, IV 3.0 mg/kg/day, male, Day 14
[9] = iv, 10 mg/kg/day, IV 10 mg/kg/day, female, Day 1
[10] = iv, 10 mg/kg/day, IV 10 mg/kg/day, female, Day 14
[11] = iv, 10 mg/kg/day, IV 10 mg/kg/day, male, Day 1
[12] = iv, 10 mg/kg/day, IV 10 mg/kg/day, male, Day 14

AMVSEFLKQAWFIENEEQEYVQTLKSSKGGPGSAVSPYPTFNPSSDV-NH2 [Peptide 1]
exposure (C(0) and AUCinf) versus dose (from 1 mg/kg to 10 mg/kg): increase proportional to dose level
C0 (1 mg/kg, Group 2 (1 mg/kg), range over sexes and Days 1 and 14): 9960 to 11900 ng/mL
AUC(0-inf) (1 mg/kg, Group 2 (1 mg/kg), range over sexes and Days 1 and 14, read-out: AUCinf): 918 to 1030 ng·h/mL
C0 (3 mg/kg, Group 3 (3 mg/kg), range over sexes and Days 1 and 14): 23000 to 41900 ng/mL
AUC(0-inf) (3 mg/kg, Group 3 (3 mg/kg), range over sexes and Days 1 and 14, read-out: AUCinf): 2280 to 3380 ng·h/mL
C0 (10 mg/kg, Group 4 (10 mg/kg), range over sexes and Days 1 and 14): 92300 to 138000 ng/mL
AUC(0-inf) (10 mg/kg, Group 4 (10 mg/kg), range over sexes and Days 1 and 14, read-out: AUCinf): 9130 to 10100 ng·h/mL
half-life (all groups, read-out: elimination half-life): 7 to 8 min
C0 [1]: 11900 ng/mL
clearance [1]: 18.1 mL/min/kg
AUC(0-inf) (iv, 1 mg/kg/day, IV 1.0 mg/kg/day, female, Day 1, read-out: AUC0-∞ (converted)): 918 ng·h/mL
half-life (iv, 1 mg/kg/day, IV 1.0 mg/kg/day, female, Day 1, read-out: T1/2): 7.33 min
Vd (iv, 1 mg/kg/day, IV 1.0 mg/kg/day, female, Day 1, read-out: Vz): 0.192 L/kg
C0 [2]: 10900 ng/mL
clearance [2]: 16.2 mL/min/kg
AUC(0-inf) (iv, 1 mg/kg/day, IV 1.0 mg/kg/day, female, Day 14, read-out: AUC0-∞ (converted)): 1030 ng·h/mL
half-life (iv, 1 mg/kg/day, IV 1.0 mg/kg/day, female, Day 14, read-out: T1/2): 7.11 min
Vd (iv, 1 mg/kg/day, IV 1.0 mg/kg/day, female, Day 14, read-out: Vz): 0.167 L/kg
C0 [3]: 9960 ng/mL
clearance [3]: 18 mL/min/kg
AUC(0-inf) (iv, 1 mg/kg/day, IV 1.0 mg/kg/day, male, Day 1, read-out: AUC0-∞ (converted)): 927 ng·h/mL
half-life (iv, 1 mg/kg/day, IV 1.0 mg/kg/day, male, Day 1, read-out: T1/2): 8.4 min
Vd (iv, 1 mg/kg/day, IV 1.0 mg/kg/day, male, Day 1, read-out: Vz): 0.218 L/kg
C0 [4]: 10300 ng/mL
clearance [4]: 17.2 mL/min/kg
AUC(0-inf) (iv, 1 mg/kg/day, IV 1.0 mg/kg/day, male, Day 14, read-out: AUC0-∞ (converted)): 967 ng·h/mL
half-life (iv, 1 mg/kg/day, IV 1.0 mg/kg/day, male, Day 14, read-out: T1/2): 7.66 min
Vd (iv, 1 mg/kg/day, IV 1.0 mg/kg/day, male, Day 14, read-out: Vz): 0.19 L/kg
C0 [5]: 30600 ng/mL
clearance [5]: 17.4 mL/min/kg
AUC(0-inf) (iv, 3 mg/kg/day, IV 3.0 mg/kg/day, female, Day 1, read-out: AUC0-∞ (converted)): 2870 ng·h/mL
half-life (iv, 3 mg/kg/day, IV 3.0 mg/kg/day, female, Day 1, read-out: T1/2): 8 min
Vd (iv, 3 mg/kg/day, IV 3.0 mg/kg/day, female, Day 1, read-out: Vz): 0.201 L/kg
C0 [6]: 41900 ng/mL
clearance [6]: 14.8 mL/min/kg
AUC(0-inf) (iv, 3 mg/kg/day, IV 3.0 mg/kg/day, female, Day 14, read-out: AUC0-∞ (converted)): 3380 ng·h/mL
half-life (iv, 3 mg/kg/day, IV 3.0 mg/kg/day, female, Day 14, read-out: T1/2): 6.85 min
Vd (iv, 3 mg/kg/day, IV 3.0 mg/kg/day, female, Day 14, read-out: Vz): 0.146 L/kg
C0 [7]: 23000 ng/mL
clearance [7]: 21.9 mL/min/kg
AUC(0-inf) (iv, 3 mg/kg/day, IV 3.0 mg/kg/day, male, Day 1, read-out: AUC0-∞ (converted)): 2280 ng·h/mL
half-life (iv, 3 mg/kg/day, IV 3.0 mg/kg/day, male, Day 1, read-out: T1/2): 7 min
Vd (iv, 3 mg/kg/day, IV 3.0 mg/kg/day, male, Day 1, read-out: Vz): 0.221 L/kg
C0 [8]: 36700 ng/mL
clearance [8]: 18.7 mL/min/kg
AUC(0-inf) (iv, 3 mg/kg/day, IV 3.0 mg/kg/day, male, Day 14, read-out: AUC0-∞ (converted)): 2680 ng·h/mL
half-life (iv, 3 mg/kg/day, IV 3.0 mg/kg/day, male, Day 14, read-out: T1/2): 6.67 min
Vd (iv, 3 mg/kg/day, IV 3.0 mg/kg/day, male, Day 14, read-out: Vz): 0.18 L/kg
C0 [9]: 127000 ng/mL
clearance [9]: 17.4 mL/min/kg
AUC(0-inf) (iv, 10 mg/kg/day, IV 10 mg/kg/day, female, Day 1, read-out: AUC0-∞ (converted)): 9570 ng·h/mL
half-life (iv, 10 mg/kg/day, IV 10 mg/kg/day, female, Day 1, read-out: T1/2): 7.16 min
Vd (iv, 10 mg/kg/day, IV 10 mg/kg/day, female, Day 1, read-out: Vz): 0.18 L/kg
C0 [10]: 138000 ng/mL
clearance [10]: 16.5 mL/min/kg
AUC(0-inf) (iv, 10 mg/kg/day, IV 10 mg/kg/day, female, Day 14, read-out: AUC0-∞ (converted)): 10100 ng·h/mL
half-life (iv, 10 mg/kg/day, IV 10 mg/kg/day, female, Day 14, read-out: T1/2): 7.04 min
Vd (iv, 10 mg/kg/day, IV 10 mg/kg/day, female, Day 14, read-out: Vz): 0.168 L/kg
C0 [11]: 104000 ng/mL
clearance [11]: 18.1 mL/min/kg
AUC(0-inf) (iv, 10 mg/kg/day, IV 10 mg/kg/day, male, Day 1, read-out: AUC0-∞ (converted)): 9200 ng·h/mL
half-life (iv, 10 mg/kg/day, IV 10 mg/kg/day, male, Day 1, read-out: T1/2): 7.8 min
Vd (iv, 10 mg/kg/day, IV 10 mg/kg/day, male, Day 1, read-out: Vz): 0.204 L/kg
C0 [12]: 92300 ng/mL
clearance [12]: 18.2 mL/min/kg
AUC(0-inf) (iv, 10 mg/kg/day, IV 10 mg/kg/day, male, Day 14, read-out: AUC0-∞ (converted)): 9130 ng·h/mL
half-life (iv, 10 mg/kg/day, IV 10 mg/kg/day, male, Day 14, read-out: T1/2): 7.31 min
Vd (iv, 10 mg/kg/day, IV 10 mg/kg/day, male, Day 14, read-out: Vz): 0.192 L/kg
